Measured values reported in US20090246249A1, “COATING COMPOSITIONS HAVING IMPROVED PERFORMANCE” (priority 2008, published 2009).
Square brackets hold non-standard residues; d marks the D form. Ends that are not written are not given here. * marks the point of attachment. Myristoyl = CCCCCCCCCCCCCC(=O)*; Lauroyl = CCCCCCCCCCCC(=O)*; linker = not defined here; Aun = NCCCCCCCCCCC(=O)O

Columns and labels:
[1] = Critical micelle concentration (methyl orange assay); type: physicochemical; settings: pH 7 PBS, methyl orange 0.04 mM, A484
Method: Formation of a composition of the invention, and evidence of macromolecular network formation, may be monitored or quantified by any means known in the art. In this example, macromolecular formation was detected using a standard assay for determining critical micelle concentration (“CMC”). In this assay, a solution containing the composition of the invention (in a range of concentrations in pH 7 phosphate buffered saline (“PBS”)) was mixed with a solution of methyl orange (0.04 mM in PBS), and the absorbance of the mixture was measured at 484 nm (A484). CMC is the concentration at which a sharp decrease in absorbance at A484 is observed, a change in the optical properties of methyl orange when trapped in a hydrophobic phase, such as caused by self-association as a macromolecular network (Table 7, “CMC”). Also included in this assay were an assay control peptide having an amino acid sequence of SEQ ID NO:122 (Table 7, “Control”), and compound 119 (a PEGylated peptide, the peptide having an amino acid sequence of SEQ ID NO:122, as described in more detail in Example 6 herein).

[2] = Retention of binding to metal bead after incubation in 10% BSA with 10 mM guanidinium chloride (mimics human plasma); settings: 18 hour incubation in 10% BSA + 10 mM guanidinium chloride, 37° C.; comparator SEQ ID NO:122
Source text: In this example, illustrated are unexpected beneficial properties of the composition of the invention, including but not limited to, one or more improved biophysical properties. Such one or more unexpected beneficial properties of a composition of the invention may comprise an increase in stability. An increase in stability may comprise any one or more of resistance to chemical denaturation, resistance to proteolytic degradation, improved retention to a substrate (e.g., resistance to being competed off a substrate to which it is bound, such as by proteins or other biomolecules found in body tissues). Thus, to ascertain a beneficial property of a composition of the invention, it is compared to the properties of a component of the composition-namely, a substrate-binding peptide by itself (e.g., without fatty acid covalently coupled thereto). An assay was developed that, from our direct comparisons (see, e.g., discussion of FIG. 2 below, and Example 7 herein), mimicked the effect of incubation of substrate-binding peptide with human plasma on stability of binding of a substrate-binding peptide to its substrate. The assay utilized incubations in the presence of 10% bovine serum album (BSA) with 10 mM guanidinium chloride. The high BSA concentration mimics the elevated albumin content of human plasma, and the guanidinium chloride is used to compete with any charged interactions involved in binding of the substrate-binding peptide to its substrate.
In this assay, two immunoassay plates were prepared for a “side-by-side” comparison of binding of a test sample (substrate-binding peptide or composition of the invention) to its substrate with or without the presence of 10% BSA with 10 mM guanidinium chloride. The wells of each 96-well polypropylene plate were incubated with 350 μl BSA 1% in PBS for 30 minutes at 20° C. with 500 rpm shaking. To each well was added one acetone-cleaned 3/32″ 316LVM stainless steel bead, followed by addition of dilutions in PBS of the test sample in a range of concentrations starting from 10 μM. Final volume in each well was 200 μl. The plates were incubated for 1 hour at 20° C. with 500 rpm shaking to allow for the binding to occur. The beads were washed 3 times with 250 μl PBS using a plate washer. […]
In the immunoassay for detecting binding without the presence of 10% BSA with 10 mM guanidinium chloride, added to each well was 200 μl of streptavidin AP (AP is alkaline phosphatase) at 1/200 in TBS+1% BSA. […] When color has developed, each well was read at OD405 nm in endpoint mode using a plate reader. […] When color has developed, the wells were read at OD405 nm in endpoint mode using a plate reader. […]

[3] = system: Staphylococcus aureus strain MZ100; assay: Tibia pin assay: coated titanium pins with vancomycin, bacterial cfu count; type: cell-based; set-up: key: —: “−” means no cfus; “many” means too many cfus to count, as they converge into one spot; settings: pin coated with test sample + vancomycin
Source text: In this assay, titanium pins were used as a model for tibia pins. Briefly, sterile pins were first coated with biofunctional composition (“SEQ ID NO:124-linker-SEQ ID NO:122”) comprising a substrate-binding peptide having binding specificity for vancomycin (“SEQ ID NO:124”) linked to a substrate-binding peptide having binding specificity for metal (“SEQ ID NO:122”), or a composition of the invention formed from compound comprising the biofunctional composition covalently coupled to fatty acid. The respective coatings also include vancomycin bound thereto. The coated pins were then placed in a silicone tube containing liquid bacterial growth medium and inoculated with bacteria. After incubation, the pins were removed, and then the liquid growth medium was serially diluted. The serial dilutions were inoculated onto bacterial culture plates, the plates were incubated, and counted on the plates were bacterial colonies.
In this assay, test samples (biofunctional composition (Table 6, “BC”) or compositions 133, 134, 135, 136 139) each were used to coat a pin by incubating the test sample (in a range of from about 0.8 mM to about 1 mM) with 2.5 μl of a 10 mM vancomycin solution and PBS to a final volume of 250 μl in a microtube (3 pins per tube) for 60 minutes at room temperature with occasional agitation. In a piece of silicone tubing (1.5 mm inner diameter, 50 mm long), added is tryptic soy broth+0.2% glucose, the coated pin, and 103 colony forming units (cfu) of Staphylococcus aureus strain MZ100 in either a 20 μl inoculum, 40 μl inoculum, or 60 μl inoculum. The tubing is clamped closed, and the tubing is incubated for 37° C. for 3 hours. After 3 hours, serial dilutions (1:10, 1:100, 1:1000) were made of the culture media from each tubing, and 10 μl of the undiluted culture medium and of each dilution were spotted onto the bacterial culture plate. The bacterial culture plate was incubated overnight at 37° C., and then the cfus were counted. The results, a composite of different assay runs, are shown in Table 6 (“−” means no cfus; “many” means too many cfus to count, as they converge into one spot; “NT” means not tested).

Question: For “MYR-SEQ ID NO:122 (Myristoyl-SSHRTNHKKNNPKKKNKTRGSSGK) [Compound 125]”, which CMC [1] is on record?
Answer: The CMC was 0.123 µM.

Question: For “LAU-SEQ ID NO:122 (Lauroyl-SSHRTNHKKNNPKKKNKTRGSSGK) [Compound 126]”, which CMC [1] is on record?
Answer: The CMC was 0.37 µM.

Question: With “MYR-linker-SEQ ID NO:122 ({Myristoyl-linker}-SSHRTNHKKNNPKKKNKTRGSSGK; reading uncertain) [Compound 127]” as the substance, how does the CMC [1] read?
Answer: The CMC was 0.123 µM.

Question: For “120: amino acid sequence YWAWAYAW (SEQ ID NO:129) covalently coupled to a peptide having the amino acid sequence of SEQ ID NO:122 (YWAWAYAWSSHRTNHKKNNPKKKNKTRGSSGK) [Compound 120, reference compound]”, which “retention of binding of substrate-binding peptide component to its substrate, compared to substrate-binding peptide alone (FIG. 1)” value [2] is on record?
Answer: The value was “failed to promote retention of binding”.

Question: For “PALM-PALM-PALM-linker-SEQ ID NO:122 (SSHRTNHKKNNPKKKNKTRGSSGK; also: three palmitoyl groups and linker, attachment not placed) [Compound 129]”, which CMC [1] is on record?
Answer: The CMC was 0.123 µM.

Question: For “AUD-AUD-AUD-AUD-SEQ ID NO:122 ([Aun][Aun][Aun][Aun]SSHRTNHKKNNPKKKNKTRGSSGK) [Compound 122]”, which “retention of binding of substrate-binding peptide component to its substrate, compared to substrate-binding peptide alone (FIG. 1)” value [2] is on record?
Answer: Its value is “significantly improved retention of binding”.

Question: With “119: Fmoc-NH-(PEG)27-CO2H covalently coupled to a peptide having the amino acid sequence of SEQ ID NO:122 (PEGylated peptide) (SSHRTNHKKNNPKKKNKTRGSSGK; also: Fmoc-NH-(PEG)27-CO2H coupled, site not given here) [Compound 119, reference compound]” as the substance, how does the “retention of binding of substrate-binding peptide component to its substrate, compared to substrate-binding peptide alone (FIG. 1)” value [2] read?
Answer: The value was “failed to promote retention of binding”.

Question: And the CMC [1]?
Answer: The CMC was >>10 μM.

Question: With “SSHRTNHKKNNPKKKNKTRGSSGK [SEQ ID NO:122]” as the substance, how does the CMC ([1]; listed as Control) read?
Answer: The CMC was >>10 μM.

Question: For “SSSCLIDMYGVCHNFDGAYDSSRG [Compound 134, AUD-AUD-AUD-AUD-SEQ ID NO:124-linker-SEQ ID NO:122]”, which “cfu 1:10” value ([3]; 20 μl inoculum) is on record?
Answer: Its value is “—”.

Question: And the “cfu 1:100” value ([3]; 20 μl inoculum)?
Answer: Its value is “—”.

Question: And the “cfu 1:1000” value ([3]; 20 μl inoculum)?
Answer: Its value is “—”.

Question: What about the cfu undiluted ([3]; 20 μl inoculum, 103 colony forming units, 3 hours 37° C.) of the same substance?
Answer: Its cfu undiluted is “—”.

Question: And the “cfu 1:10” value ([3]; 40 μl inoculum)?
Answer: The value was 6 cfu.

Question: And the “cfu 1:100” value ([3]; 40 μl inoculum)?
Answer: The value was 1 cfu.

Question: And the “cfu 1:1000” value ([3]; 40 μl inoculum)?
Answer: The value was “—”.

Question: What about the cfu undiluted ([3]; 40 μl inoculum) of the same substance?
Answer: The cfu undiluted was “many”.

Question: What about the “cfu 1:10” value ([3]; 60 μl inoculum) of the same substance?
Answer: Its value is 17 cfu.

Question: And the “cfu 1:100” value ([3]; 60 μl inoculum)?
Answer: Its value is 5 cfu.

Question: What about the “cfu 1:1000” value ([3]; 60 μl inoculum) of the same substance?
Answer: The value was “—”.

Question: What about the cfu undiluted ([3]; 60 μl inoculum) of the same substance?
Answer: Its cfu undiluted is “many”.

Question: For “SSHRTNHKKNNPKKKNKTRGSSGK [Compound 131, AUD-AUD-AUD-AUD-AUD-AUD-AUD-AUD-SEQ ID NO:122]”, which CMC [1] is on record?
Answer: Its CMC is 0.37 µM.

Question: For “SSHRTNHKKNNPKKKNKTRGSSGK [Compound 130, AUD-AUD-AUD-AUD-AUD-AUD-SEQ ID NO:122]”, which CMC [1] is on record?
Answer: Its CMC is 0.041 µM.

Question: With “[MYR]2-K-linker-SEQ ID NO:122 (SSHRTNHKKNNPKKKNKTRGSSGK; also: lysine bearing two myristoyl groups plus linker, attachment not placed) [Compound 128]” as the substance, how does the CMC [1] read?
Answer: The CMC was 0.123 µM.

Question: Which results are given for “AUD-AUD-K-AUD-AUD-AUD-AUD-SEQ ID NO:122 ([Aun][Aun]K[Aun][Aun][Aun][Aun]SSHRTNHKKNNPKKKNKTRGSSGK) [Compound 123]”?
Answer: retention of binding of substrate-binding peptide component to its substrate, compared to substrate-binding peptide alone (FIG. 1) [2]: significantly improved retention of binding; CMC [1]: 0.04 µM

Question: With “Ac-Y-AUD-AUD-AUD-AUD-AUD-AUD-SEQ ID NO:122 (Ac-Y[Aun][Aun][Aun][Aun][Aun][Aun]SSHRTNHKKNNPKKKNKTRGSSGK) [Compound 132]” as the substance, how does the CMC [1] read?
Answer: The CMC was 0.123 µM.
